# According to patent US7138361B2, “Herbicidal heterocycles” (E. I. du Pont de Nemours and Company, priority 2000, dated 2006):
# What was measured:
# Assay in all cases: Test B postemergence
# Format in all cases: in vivo
# [1] = system: Surinam grass (Brachiaria decumbens)
# Summary of the method: (§1)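 Preemergence: seeds planted and treated with test chemicals in non-phytotoxic solvent with surfactant; postemergence on plants 2–18 cm (1- to 4-leaf stage). Kept in greenhouse 13–15 days, then visually rated against controls on a 0 (no effect) to 100 (complete control) scale.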
# [2] = system: barnyardgrass (Echinochloa crus-galli)
# Summary of the method: as §1
# [3] = system: cocklebur (Xanthium strumarium)
# Summary of the method: as §1
# corn (Zea mays) = system: corn (Zea mays)
# Summary of the method: as §1
# [4] = system: crabgrass (Digitaria sanguinalis)
# Summary of the method: as §1
# [5] = system: giant foxtail (Setaria faberii)
# Summary of the method: as §1
# [6] = system: morning glory (Ipomoea hederacea)
# Summary of the method: as §1
# [7] = system: pigweed (Amaranthus retroflexus)
# Summary of the method: as §1
# [8] = system: velvetleaf (Abutilon theophrasti)
# Summary of the method: as §1
# [9] = system: wheat (Triticum aestivum)
# Summary of the method: as §1
# wild oat (Avena fatua) = system: wild oat (Avena fatua)
# Summary of the method: as §1
# [10] = Rate 125 g/ha, scale 0 (no effect) to 100 (complete control), 13 to 15 days
# [11] = Rate 500 g/ha, scale 0 to 100, 0 is no effect, 100 is complete control, 13 to 15 days
# [12] = Rate 62 g/ha, scale 0 to 100, 0 no effect, 100 complete control
# [13] = Rate 250 g/ha, scale 0 (no effect) to 100 (complete control), 13 to 15 days
smiles,measurement,setting,value
O=C1C(n2cc(Cl)c(C3CC3)n2)CCN1c1cccc(C(F)(F)F)c1 (stereo not shown) [Compound 12],"Plant response rating, Surinam grass",[1]; [10],0
same,"Plant response rating, Surinam grass",[1]; [11],0
same,"Plant response rating, Barnyardgrass",[2]; [10],0
same,"Plant response rating, Barnyardgrass",[2]; [11],0
same,"Plant response rating, Cocklebur",[3]; [10],0
same,"Plant response rating, Cocklebur",[3]; [11],0
same,"Plant response rating, Corn",corn (Zea mays); [10],0
same,"Plant response rating, Corn",corn (Zea mays); [11],0
same,"Plant response rating, Crabgrass",[4]; [10],0
same,"Plant response rating, Crabgrass",[4]; [11],0
same,"Plant response rating, Foxtail, Giant",[5]; [10],0
same,"Plant response rating, Foxtail, Giant",[5]; [11],0
same,"Plant response rating, Morningglory",[6]; [10],0
same,"Plant response rating, Morningglory",[6]; [11],0
same,"Plant response rating, Pigweed",[7]; [10],0
same,"Plant response rating, Pigweed",[7]; [11],0
same,"Plant response rating, Velvetleaf",[8]; [10],0
same,"Plant response rating, Velvetleaf",[8]; [11],0
same,"Plant response rating, Wheat",[9]; [10],0
same,"Plant response rating, Wheat",[9]; [11],0
same,"Plant response rating, Wild Oat",wild oat (Avena fatua); [10],0
same,"Plant response rating, Wild Oat",wild oat (Avena fatua); [11],0
CCC(C)c1ccn(C2OCN(c3cccc(C(F)(F)F)c3)C2=O)n1 (stereo not shown) [Compound 24],"Plant response rating, Surinam grass",[1]; [10],0
same,"Plant response rating, Surinam grass",[1]; [11],50
same,"Plant response rating, Barnyardgrass",[2]; [10],70
same,"Plant response rating, Barnyardgrass",[2]; [11],100
same,"Plant response rating, Cocklebur",[3]; [10],20
same,"Plant response rating, Cocklebur",[3]; [11],40
same,"Plant response rating, Corn",corn (Zea mays); [10],0
same,"Plant response rating, Corn",corn (Zea mays); [11],50
same,"Plant response rating, Crabgrass",[4]; [10],60
same,"Plant response rating, Crabgrass",[4]; [11],90
same,"Plant response rating, Foxtail, Giant",[5]; [10],20
same,"Plant response rating, Foxtail, Giant",[5]; [11],80
same,"Plant response rating, Morningglory",[6]; [10],0
same,"Plant response rating, Morningglory",[6]; [11],40
same,"Plant response rating, Pigweed",[7]; [10],80
same,"Plant response rating, Pigweed",[7]; [11],100
same,"Plant response rating, Velvetleaf",[8]; [10],0
same,"Plant response rating, Velvetleaf",[8]; [11],0
same,"Plant response rating, Wheat",[9]; [10],0
same,"Plant response rating, Wheat",[9]; [11],0
same,"Plant response rating, Wild Oat",wild oat (Avena fatua); [10],0
same,"Plant response rating, Wild Oat",wild oat (Avena fatua); [11],0
O=C1C(n2ccc(C3CC3)n2)SCN1c1cccc(C(F)(F)F)c1 (stereo not shown) [Compound 26],"Plant response rating, Surinam grass",[1]; [10],20
same,"Plant response rating, Surinam grass",[1]; [11],20
same,"Plant response rating, Barnyardgrass",[2]; [10],0
same,"Plant response rating, Barnyardgrass",[2]; [11],80
same,"Plant response rating, Cocklebur",[3]; [10],50
same,"Plant response rating, Cocklebur",[3]; [11],60
same,"Plant response rating, Corn",corn (Zea mays); [10],0
same,"Plant response rating, Corn",corn (Zea mays); [11],70
same,"Plant response rating, Crabgrass",[4]; [10],0
same,"Plant response rating, Crabgrass",[4]; [11],20
same,"Plant response rating, Foxtail, Giant",[5]; [10],20
same,"Plant response rating, Foxtail, Giant",[5]; [11],50
same,"Plant response rating, Morningglory",[6]; [10],0
same,"Plant response rating, Morningglory",[6]; [11],10
same,"Plant response rating, Pigweed",[7]; [10],0
same,"Plant response rating, Pigweed",[7]; [11],60
same,"Plant response rating, Velvetleaf",[8]; [10],20
same,"Plant response rating, Velvetleaf",[8]; [11],20
same,"Plant response rating, Wheat",[9]; [10],0
same,"Plant response rating, Wheat",[9]; [11],0
same,"Plant response rating, Wild Oat",wild oat (Avena fatua); [10],0
same,"Plant response rating, Wild Oat",wild oat (Avena fatua); [11],0
CCC(CC)c1ccn(C2OCN(c3cccc(OC(F)(F)F)c3)C2=O)n1 (stereo not shown) [Compound 68],"Plant response rating, Surinam grass",[1]; [10],20
same,"Plant response rating, Surinam grass",[1]; [11],30
same,"Plant response rating, Barnyardgrass",[2]; [10],90
same,"Plant response rating, Barnyardgrass",[2]; [11],100
same,"Plant response rating, Cocklebur",[3]; [10],50
same,"Plant response rating, Cocklebur",[3]; [11],80
same,"Plant response rating, Corn",corn (Zea mays); [10],0
same,"Plant response rating, Corn",corn (Zea mays); [11],0
same,"Plant response rating, Crabgrass",[4]; [10],90
same,"Plant response rating, Crabgrass",[4]; [11],100
same,"Plant response rating, Foxtail, Giant",[5]; [10],20
same,"Plant response rating, Foxtail, Giant",[5]; [11],40
same,"Plant response rating, Morningglory",[6]; [10],0
same,"Plant response rating, Morningglory",[6]; [11],0
same,"Plant response rating, Pigweed",[7]; [10],0
same,"Plant response rating, Pigweed",[7]; [11],0
same,"Plant response rating, Velvetleaf",[8]; [10],0
same,"Plant response rating, Velvetleaf",[8]; [11],20
same,"Plant response rating, Wheat",[9]; [10],0
same,"Plant response rating, Wheat",[9]; [11],0
same,"Plant response rating, Wild Oat",wild oat (Avena fatua); [10],0
same,"Plant response rating, Wild Oat",wild oat (Avena fatua); [11],0
CC1(c2ccn(C3OCN(c4cccc(OC(F)(F)F)c4)C3=O)n2)CC1 (stereo not shown) [Compound 69],"Plant response rating, Surinam grass",[1]; [10],0
same,"Plant response rating, Surinam grass",[1]; [11],0
same,"Plant response rating, Barnyardgrass",[2]; [10],0
same,"Plant response rating, Barnyardgrass",[2]; [11],90
same,"Plant response rating, Cocklebur",[3]; [10],0
same,"Plant response rating, Cocklebur",[3]; [11],20
same,"Plant response rating, Corn",corn (Zea mays); [10],0
same,"Plant response rating, Corn",corn (Zea mays); [11],0
same,"Plant response rating, Crabgrass",[4]; [10],0
same,"Plant response rating, Crabgrass",[4]; [11],30
same,"Plant response rating, Foxtail, Giant",[5]; [10],0
same,"Plant response rating, Foxtail, Giant",[5]; [11],0
same,"Plant response rating, Morningglory",[6]; [10],0
same,"Plant response rating, Morningglory",[6]; [11],0
same,"Plant response rating, Pigweed",[7]; [10],0
same,"Plant response rating, Pigweed",[7]; [11],0
same,"Plant response rating, Velvetleaf",[8]; [10],0
same,"Plant response rating, Velvetleaf",[8]; [11],0
same,"Plant response rating, Wheat",[9]; [10],0
same,"Plant response rating, Wheat",[9]; [11],0
same,"Plant response rating, Wild Oat",wild oat (Avena fatua); [10],0
same,"Plant response rating, Wild Oat",wild oat (Avena fatua); [11],0
"CC(C)(C)c1ccn(C2CCN(c3cccc(C(F)(F)F)c3)C2=O)n1 (stereo not shown) [Example 3, 3-[3-(1,1-dimethylethyl)-1H-pyrazol-1-yl]-1-[3-(trifluoromethyl)phenyl]-2-pyrrolidinone]","Plant response rating, Surinam grass",[1]; [10],0
same,"Plant response rating, Surinam grass",[1]; [11],20
same,"Plant response rating, Barnyardgrass",[2]; [10],0
same,"Plant response rating, Barnyardgrass",[2]; [11],70
same,"Plant response rating, Cocklebur",[3]; [10],0
same,"Plant response rating, Cocklebur",[3]; [11],30
same,"Plant response rating, Corn",corn (Zea mays); [10],0
same,"Plant response rating, Corn",corn (Zea mays); [11],0
same,"Plant response rating, Crabgrass",[4]; [10],0
same,"Plant response rating, Crabgrass",[4]; [11],40
same,"Plant response rating, Foxtail, Giant",[5]; [10],0
same,"Plant response rating, Foxtail, Giant",[5]; [11],30
same,"Plant response rating, Morningglory",[6]; [10],0
same,"Plant response rating, Morningglory",[6]; [11],30
same,"Plant response rating, Pigweed",[7]; [10],70
same,"Plant response rating, Pigweed",[7]; [11],90
same,"Plant response rating, Velvetleaf",[8]; [10],0
same,"Plant response rating, Velvetleaf",[8]; [11],0
same,"Plant response rating, Wheat",[9]; [10],0
same,"Plant response rating, Wheat",[9]; [11],0
same,"Plant response rating, Wild Oat",wild oat (Avena fatua); [10],0
same,"Plant response rating, Wild Oat",wild oat (Avena fatua); [11],0
CC(C)(C)c1ccn(C2OCN(c3cccc(C(F)(F)F)c3)C2=O)n1 (stereo not shown) [compound 9],"Plant response rating, Surinam grass",[1]; [12],0
same,"Plant response rating, Surinam grass",[1]; [13],0
same,"Plant response rating, Barnyardgrass",[2]; [12],0
same,"Plant response rating, Barnyardgrass",[2]; [13],60
same,"Plant response rating, Cocklebur",[3]; [12],10
same,"Plant response rating, Cocklebur",[3]; [13],20
same,"Plant response rating, Corn",corn (Zea mays); [12],0
same,"Plant response rating, Corn",corn (Zea mays); [13],0
same,"Plant response rating, Crabgrass",[4]; [12],0
same,"Plant response rating, Crabgrass",[4]; [13],0
same,"Plant response rating, Foxtail, Giant",[5]; [12],0
same,"Plant response rating, Foxtail, Giant",[5]; [13],0
same,"Plant response rating, Morningglory",[6]; [12],0
same,"Plant response rating, Morningglory",[6]; [13],10
same,"Plant response rating, Pigweed",[7]; [12],70
same,"Plant response rating, Pigweed",[7]; [13],80
same,"Plant response rating, Velvetleaf",[8]; [12],0
same,"Plant response rating, Velvetleaf",[8]; [13],0
same,"Plant response rating, Wheat",[9]; [12],0
same,"Plant response rating, Wheat",[9]; [13],0
same,"Plant response rating, Wild Oat",wild oat (Avena fatua); [12],0
same,"Plant response rating, Wild Oat",wild oat (Avena fatua); [13],0
